Measured values: patent US9073892B2, “Indazolyl triazol derivatives” (Merck Serono S.A., priority 2010, dated 2015)

Tests used:
[1] = test system: IL1β-induced IL8 release in THP1 cells; experiment: IRAK IL8 secretion functional assay; assay type: cell-based; conditions: Homo sapiens; THP-1 cells, IL1β 100 ng/ml overnight, IL8 by HTRF; read-out: IC50, Secretion THP-1/IL-β induced IL8 release
Description: IRAK IL8 Secretion Functional Assay:
THP1 cells are human monocytes derived from acute monocytic leukemia. IL1β receptor expressed on the surface membrane of THP1 cells induced IL8 release. IRAKs are kinase signaling downstream of TLRs and TNF, IL-18, IL-33 and IL-1 receptors.
In cells, IRAK4 is upstream of IRAK1.
The Human IL8 Kit, provided by CysBio International based in Bagnols/Cèze FR, allows for the quantitative determination of IL-8 in cell-culture supernatants.
Anti-cytokine IL8 antibodies are respectively labeled with europium Cryptate and XL665. Upon their binding to IL-8 molecules, the two antibodies come into close proximity, allowing FRET (Fluorescence Resonance Energy Transfer) to occur. This FRET increases proportionally to IL-8 concentrations and be converted in IL8 pg amounts.
THP-1 cells are seeded on Day 1 in 384 well plate with RPMI 1640 at a density of 30 000 cells/well. Compounds 4×/2% DMSO (range of concentrations from 20 μM to 1 nM) and IL1β 4× at 100 ng/ml final are added to cells overnight at 37° C., 5% CO2. Measurement of IL-8 secretion is done by mixing on Day2 10 μl of supernatant with 10 μl of a mix solution of europium Cryptate and XL665 (v:v) as described by supplier.
HTRF (homogeneous time resolved fluorescence) signal is measured after 3 hours incubation time at 30° C. with a BMG Pherastar reader or equivalent.

[2] = test system: T1, IRAK1/4 human; experiment: IRAK1/4 phosphorylation IC50 (enzymatic assay, table 2); assay type: biochemical; conditions: human IRAK1/4 phosphorylation
T1 construct: fused on or other part: His tag and TEV cleavage site at the N-terminus
In short: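 The IC50 values describe inhibition of His-TEV-tagged human IRAK-1 or IRAK-4. Each enzyme was incubated with ATP and compounds in DMSO at 20 µM to 1 nM for 2 or 3 hours, with STK1-biotin peptide included for IRAK-4.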

Structure (SMILES) | IC50 [1] [nM] | IC50 [2] [nM]
CN1CCCC(CNC(=O)c2ccc(-n3cc(-c4n[nH]c5ccccc45)nn3)cc2)C1 (centres unmarked) [Example 77, 4-[4-(1H-indazol-3-yl)-1H-1,2,3-triazol-1-yl]-N-[(1-methylpiperidin-3-yl)methyl]benzamide] | 100 to 1000 | 100 to 1000
CN1CCN(C(=O)Cc2cccc(-n3cc(-c4n[nH]c5ccccc45)nn3)c2)CC1 [Example 79, 3-(1-{3-[2-(4-methylpiperazin-1-yl)-2-oxoethyl]phenyl}-1H-1,2,3-triazol-4-yl)-1H-indazole] | 1000 to 5000 | 1000 to 5000
c1cc(CCN2CCOCC2)cc(-n2cc(-c3n[nH]c4ccccc34)nn2)c1 [Example 80, 3-{1-[3-(2-morpholin-4-ylethyl)phenyl]-1H-1,2,3-triazol-4-yl}-1H-indazole] | 1000 to 5000 | 1000 to 5000
O=C(c1ccc(-n2cc(-c3n[nH]c4ccccc34)nn2)cc1F)N1CCOCC1 [Example 81, 3-{1-[3-fluoro-4-(morpholin-4-ylcarbonyl)phenyl]-1H-1,2,3-triazol-4-yl}-1H-indazole] | 100 to 1000 | 100 to 1000
O=C(Cc1cccc(-n2cc(-c3n[nH]c4ccccc34)nn2)c1)N1CCCC1 [Example 82, 3-{1-[3-(2-oxo-2-pyrrolidin-1-ylethyl)phenyl]-1H-1,2,3-triazol-4-yl}-1H-indazole] | 1000 to 5000 | 1000 to 5000
c1cc(CCN2CCCC2)cc(-n2cc(-c3n[nH]c4ccccc34)nn2)c1 [Example 83, 3-{1-[3-(2-pyrrolidin-1-ylethyl)phenyl]-1H-1,2,3-triazol-4-yl}-1H-indazole] | 100 to 1000 | 1000 to 5000
O=C(c1ccc(-n2cc(-c3n[nH]c4ccc(C5CCNCC5)cc34)nn2)cc1)N1CCOCC1 [Example 84, 3-{1-[4-(morpholin-4-ylcarbonyl)phenyl]-1H-1,2,3-triazol-4-yl}-5-piperidin-4-yl-1H-indazole] | 1000 to 5000 | < 100
c1cc(CCCN2CCOCC2)cc(-n2cc(-c3n[nH]c4ccccc34)nn2)c1 [Example 86, 3-{1-[3-(3-morpholin-4-ylpropyl)phenyl]-1H-1,2,3-triazol-4-yl}-1H-indazole] | 1000 to 5000 | 1000 to 5000
c1cc(CCCN2CCCC2)cc(-n2cc(-c3n[nH]c4ccccc34)nn2)c1 [Example 88, 3-{1-[3-(3-pyrrolidin-1-ylpropyl)phenyl]-1H-1,2,3-triazol-4-yl}-1H-indazole] | 100 to 1000 | 1000 to 5000
O=C(c1ccc(-n2cc(-c3n[nH]c4ccccc34)nn2)cc1Cl)N1CCOCC1 [Example 89, 3-{1-[3-chloro-4-(morpholin-4-ylcarbonyl)phenyl]-1H-1,2,3-triazol-4-yl}-1H-indazole] | 1000 to 5000 | 100 to 1000
CN(C)CC1CCN(C(=O)c2ccc(-n3cc(-c4n[nH]c5ccccc45)nn3)cc2)CC1 [Example 91, 1-(1-{4-[4(1H-indazol-3-yl)-1H-1,2,3-triazol-1-yl]benzoyl}piperidin-4-yl)-N,N-dimethylmethanamine] | 100 to 1000 | 100 to 1000
CN(C)CCC1CCCCN1C(=O)c1ccc(-n2cc(-c3n[nH]c4ccccc34)nn2)cc1 (centres unmarked) [Example 92] | 100 to 1000 | 100 to 1000
O=C(c1ccc(-n2cc(-c3n[nH]c4ccc(CO)cc34)nn2)cc1)N1CCOCC1 [Example 93, (3-{1-[4(morpholin-4-ylcarbonyl)phenyl]-1H-1,2,3-triazol-4-yl}-1H-indazol-5-yl)methanol] | 1000 to 5000 | 100 to 1000
O=C(c1ccc(-n2cc(-c3n[nH]c4ccc(Cn5nc(-c6cc(F)cc(F)c6)ccc5=O)cc34)nn2)cc1)N1CCOCC1 [Example 94, 6-(3,5-difluorophenyl)-2-[(3-{1-[4-(morpholin-4-ylcarbonyl)phenyl]-1H-1,2,3-triazol-4-yl}-1H-indazol-5-yl)methyl]pyridazin-3(2H)-one] | 100 to 1000 | < 100
O=C(c1ccc(-n2cc(-c3n[nH]c4ccc(Cn5ncccc5=O)cc34)nn2)cc1)N1CCOCC1 [Example 95, 2-[(3-{1-[4-(morpholin-4-ylcarbonyl)phenyl]-1H-1,2,3-triazol-4-yl}-1H-indazol-5-yl)methyl]pyridazin-3(2H)-one] | 1000 to 5000 | 100 to 1000
O=C(c1ccc(-n2cc(-c3n[nH]c4ccccc34)nn2)cc1)N1CCC[C@@H](O)C1 [Example 96, (3R)-1-{4-[4-(1H-indazol-3-yl)-1H-1,2,3-triazol-1-yl]benzoyl}piperidin-3-ol] | 100 to 1000 | 100 to 1000

Structure (SMILES) | IC50 [1] [nM] | IC50 [2] [nM]
O=C(c1ccc(-n2cc(-c3n[nH]c4ccccc34)nn2)cc1)N1CCC[C@H](O)C1 [Example 97, (3S)-1-{4-[4-(1H-indazol-3-yl)-1H-1,2,3-triazol-1-yl]benzoyl}piperidin-3-ol] | 100 to 1000 | 100 to 1000
CN1CCC(n2cc(NC(=O)c3ccc(-n4cc(-c5n[nH]c6ccccc56)nn4)cc3)cn2)CC1 [Example 98, 4-[4-(1H-indazol-3-yl)-1H-1,2,3-triazol-1-yl]-N-[1-(1-methylpiperidin-4-yl)-1H-pyrazol-4-yl]benzamide] | 100 to 1000 | < 100
O=C(c1ccc(-n2cc(-c3n[nH]c4ccccc34)nn2)cc1)N1CCC[C@H]1CO [Example 99] | 100 to 1000 | 100 to 1000
O=C(c1ccc(-n2cc(-c3n[nH]c4ccccc34)nn2)cc1)N1CCCCC1CO (centres unmarked) [Example 100, (1-{4-[4-(1H-indazol-3-yl)-1H-1,2,3-triazol-1-yl]benzoyl}piperidin-2-yl)methanol] | 100 to 1000 | 100 to 1000
O=C(c1ccc(-n2cc(-c3n[nH]c4ccccc34)nn2)cc1C(F)(F)F)N1CCOCC1 [Example 101, 3-{1-[4-(morpholin-4-ylcarbonyl)-3-(trifluoromethyl)phenyl]-1H-1,2,3-triazol-4-yl}-1H-indazole] | 1000 to 5000 | 100 to 1000
O=C(c1ccc(-n2cc(-c3n[nH]c4ccc(Cn5nc(-c6ccncc6)ccc5=O)cc34)nn2)cc1)N1CCOCC1 [Example 103, 2-[(3-{1-[4-(morpholin-4-ylcarbonyl)phenyl]-1H-1,2,3-triazol-4-yl}-1H-indazol-5-yl)methyl]-6-pyridin-4-ylpyridazin-3(2H)-one] | 100 to 1000 | < 100
CN1CC=C(c2ccc3[nH]nc(-c4cn(-c5ccc(C(=O)N6CCOCC6)cc5)nn4)c3c2)CC1 [Example 104, 5-(1-methyl-1,2,3,6-tetrahydropyridin-4-yl)-3-{1-[4-(morpholin-4-ylcarbonyl)phenyl]-1H-1,2,3-triazol-4-yl}-1H-indazole] | 100 to 1000 | < 100
CC(=O)N1CCC(c2ccc3[nH]nc(-c4cn(-c5ccc(C(=O)N6CCOCC6)cc5)nn4)c3c2)CC1 [Example 105, 5-(1-acetylpiperidin-4-yl)-3-{1-[4-(morpholin-4-ylcarbonyl)phenyl]-1H-1,2,3-triazol-4-yl}-1H-indazole] | 1000 to 5000 | 100 to 1000
O=C(c1ccc(-n2cc(-c3n[nH]c4ccc(C5=CCN(Cc6ccccc6)CC5)cc34)nn2)cc1)N1CCOCC1 [Example 106, 5-(1-benzyl-1,2,3,6-tetrahydropyridin-4-yl)-3-{1-[4-(morpholin-4-ylcarbonyl)phenyl]-1H-1,2,3-triazol-4-yl}-1H-indazole] | 1000 to 5000 | 100 to 1000
COC[C@@H]1CCCN1C(=O)c1ccc(-n2cc(-c3n[nH]c4ccccc34)nn2)cc1 [Example 108, 3-[1-(4-{[(2S)-2-(methoxymethyl)pyrrolidin-1-yl]carbonyl}phenyl)-1H-1,2,3-triazol-4-yl]-1H-indazole] | 100 to 1000 | < 100
COC1CCN(C(=O)c2ccc(-n3cc(-c4n[nH]c5ccccc45)nn3)cc2)CC1 [Example 109, 3-(1-{4-[(4-methoxypiperidin-1-yl)carbonyl]phenyl}-1H-1,2,3-triazol-4-yl)-1H-indazole] | 100 to 1000 | 100 to 1000
Cc1ccc(=O)n(Cc2ccc3[nH]nc(-c4cn(-c5ccc(C(=O)N6CCOCC6)cc5)nn4)c3c2)n1 [Example 110] | 1000 to 5000 | 100 to 1000
O=C(Nc1cnn(CCN2CCOCC2)c1)c1ccc(-n2cc(-c3n[nH]c4ccccc34)nn2)cc1 [Example 111, 4-[4-(1H-indazol-3-yl)-1H-1,2,3-triazol-1-yl]-N-[1-(2-morpholin-4-ylethyl)-1H-pyrazol-4-yl]benzamide] | 100 to 1000 | 100 to 1000
CN1CCC(n2cc(NC(=O)c3ccc(-n4cc(-c5n[nH]c6ccccc56)nn4)cc3)cn2)C1 (centres unmarked) [Example 112, 4-[4-(1H-indazol-3-yl)-1H-1,2,3-triazol-1-yl]-N-[1-(1-methylpyrrolidin-3-yl)-1H-pyrazol-4-yl]benzamide] | 100 to 1000 | < 100
COCCC1CCCN(C(=O)c2ccc(-n3cc(-c4n[nH]c5ccccc45)nn3)cc2)C1 (centres unmarked) [Example 113] | 100 to 1000 | 100 to 1000
